The record followed here is patent US20250049754A1, “COMPOSITIONS COMPRISING UROLITHIN FOR TREATING MUSCLE DECLINE AND A KIDNEY DYSFUNCTION” (SOCIETE DES PRODUITS NESTLE S.A., priority 2021, published 2025).

Structures are written as SMILES.

What all share (format): in vivo
The subject of assay [1] is db/db mouse. The experiment in a line: Kidney function in the db/db mouse model of type 2 diabetes: urine albumin (ELISA), urinary creatinine (Cobas Integra), 24-hour metabolic caging. As to conditions: db/db mice, 50 mg/kg/day oral gavage; for albumin/creatinine ratio: vs db/db+V group. The protocol:
Creatinine was determined using a Cobas Integra autoanalyzer. Excretion of urine albumin was measured by ELISA kit.
Urinary creatinine was determined using a Cobas Integra autoanalyzer.
Excretion of urine albumin was measured by ELISA kit.
The renoprotective effects of Urolithin A were assessed in a mouse model of type 2 diabetes (the db/db mouse).
A mouse model of diabetes was used endorsed by the Diabetic Complications Consortium (DiabComp/AMDCC), the db/db mouse model, which is obese and insulin resistant “type 2”.
Mice were purchased from The Jackson Laboratory (Stock No: 000642) in order to obtain sizeable cohorts to run groups in tandem, which is crucial for reliable testing of mitochondrial function. Eight to nine week-old male db/db mice (n=15 per group) received Urolithin A by oral gavage (50 mg/kg/day) for a duration of 10 weeks. Db/m (control) or db/db (diabetic) mice were randomized to the following treatments:
A suspension of 0.5% carboxymethylcellulose (CMC; Sigma #419303) was first prepared. Urolithin A (16.67 mg/ml) was prepared by dissolving in 0.5% CMC solution and left stirring at room temperature. Urolithin A was dosed at 50 mg/kg/day. The weights of the mice were used to calculate the dosage of Urolithin A to be administered to each mouse, based on weekly bodyweight measurements. Approximately 1001 of 0.5% CMC was given to mice daily in the vehicle groups.
At baseline, mid-point and one week prior to euthanasia, mice underwent metabolic caging for 24 hours to collect urine and to measure food and water intake. Body composition by EchoMRI was performed at baseline, mid-point and two weeks prior to euthanasia to determine fat mass and lean body mass. At baseline and week 9, an oral glucose tolerance test was performed to assess glucose handling. Fasting plasma glucose was measured using a glucose colorimetric assay kit (Cayman, Ann Arbor, USA) at baseline, 15 min and 60 min after glucose treatment. Blood pressure measurements were performed at week 10.
All analyses were performed by ANOVA followed by post hoc paired analysis using Tukey's least significant difference method, correcting for multiple comparisons. A value for p<0.05 was considered as statistically significant. A Z-score of 2 was used to exclude outliers.
One week prior to cull, 24-hour metabolic caging was performed to collect urine, and blood was collected from the submandibular vein. Urine and plasma creatinine was determined using the Cobas Integra autoanalyzer. Urine albumin was measured by ELISA (Bethyl, USA). Blood pressure was determined by tail cuff plethysmography.
Excretion of albumin in the urine over a 24-hour period was measured by ELISA kit (Bethyl). At the endpoint of the study, there was a significant increase in albuminuria in db/db mice when compared to db/m mice. […] Creatinine clearance was calculated from urine and plasma creatinine measured using the Creatinine plus ver.2 (CREP2) assay on a Cobas Integra 400 plus autoanalyzer (Roche Diagnostics). There was a decline in kidney function in db/db mice (Diabetic) as measured by an increase in albuminuria and reduced creatinine clearance at 18-19 weeks of age. Treatment of UA delayed the progression of albuminuria in the db/db mice.
For orientation: In an ELISA, binding on a coated surface is turned into a signal by an enzyme label.

Assay [2] has as its system db/db mouse. The experiment in a line: Whole body composition (lean mass) by EchoMRI in db/db mice. To be noted: 50 mg/kg/day oral gavage, 10 weeks, vs db/db+V group. The protocol: The lean mass of muscles was measured using EchoMRI. Mice were purchased from The Jackson Laboratory (Stock No: 000642) in order to obtain sizeable cohorts to run groups in tandem, which is crucial for reliable testing of mitochondrial function. Eight to nine week-old male db/db mice (n=15 per group) received Urolithin A by oral gavage (50 mg/kg/day) for a duration of 10 weeks. Db/m (control) or db/db (diabetic) mice were randomized to the following treatments: A suspension of 0.5% carboxymethylcellulose (CMC; Sigma #419303) was first prepared. Urolithin A (16.67 mg/ml) was prepared by dissolving in 0.5% CMC solution and left stirring at room temperature. Urolithin A was dosed at 50 mg/kg/day. The weights of the mice were used to calculate the dosage of Urolithin A to be administered to each mouse, based on weekly bodyweight measurements. Approximately 1001 of 0.5% CMC was given to mice daily in the vehicle groups. At baseline, mid-point and one week prior to euthanasia, mice underwent metabolic caging for 24 hours to collect urine and to measure food and water intake. […] Fasting plasma glucose was measured using a glucose colorimetric assay kit (Cayman, Ann Arbor, USA) at baseline, 15 min and 60 min after glucose treatment. […] Whole body composition including lean mass and fat mass were measured using EchoMRI at baseline, midpoint and endpoint.

In assay [3] the test system is db/db mouse. In words: Muscle mass of tibialis anterior and quadriceps by weighing in db/db mice. To be noted: 50 mg/kg/day oral gavage, 10 weeks, vs db/db+V group. The protocol: The muscle mass of the tibialis anterior was measured by weighing on a precision scale. […] The muscle mass of the quadriceps was measured by weighing on a precision scale. Mice were purchased from The Jackson Laboratory (Stock No: 000642) in order to obtain sizeable cohorts to run groups in tandem, which is crucial for reliable testing of mitochondrial function. Eight to nine week-old male db/db mice (n=15 per group) received Urolithin A by oral gavage (50 mg/kg/day) for a duration of 10 weeks. Db/m (control) or db/db (diabetic) mice were randomized to the following treatments: A suspension of 0.5% carboxymethylcellulose (CMC; Sigma #419303) was first prepared. Urolithin A (16.67 mg/ml) was prepared by dissolving in 0.5% CMC solution and left stirring at room temperature. Urolithin A was dosed at 50 mg/kg/day. The weights of the mice were used to calculate the dosage of Urolithin A to be administered to each mouse, based on weekly bodyweight measurements. Approximately 1001 of 0.5% CMC was given to mice daily in the vehicle groups. All analyses were performed by ANOVA followed by post hoc paired analysis using Tukey's least significant difference method, correcting for multiple comparisons. A value for p<0.05 was considered as statistically significant. […] Whole body composition including lean mass and fat mass were measured using EchoMRI at baseline, midpoint and endpoint. […]

Assay [4] has as its system db/db mouse. In words: Urinary carnosine, anserine and S-adenosylmethionine, semi-quantitative, HILIC chromatography and ESI-orbitrap mass spectrometry, in db/db mice. As to conditions: 50 mg/kg/day oral gavage, 10 weeks, vs db/db+V group. The protocol: Urinary carnosine was determined in a semi-quantitative manner using cold methanol:water:chloroform (5:3:5 (v/v)) extraction to separate the polar metabolites and apolar metabolites. In addition, a protein layer remained in the middle between the two phases. The polar phase was dried overnight in a vacuum centrifuge at 4° C. and 5 mbar, and was dissolved in 60 μl 60% (v/v) acetonitrile:water prior to analysis. The protein layer was quantified with a bicinchoninic acid (BCA) assay (ThermoFisher Scientific) and used for later normalization of the metabolite concentrations. Two microliters of each sample were injected into a hydrophilic interaction chromatography (HILIC) analytical column. The separation was achieved by applying a linear solvent gradient. As mobile phase, solvent A was H2O with 10 mM ammonium acetate (NH4Ac) and 0.04% (v/v) ammonium hydroxide (NH4OH), pH ˜9.3, and solvent B was acetonitrile (ACN). The eluting metabolites, including carnosine, were analyzed with an orbitrap mass spectrometer (Orbitrap Fusion Lumos Tribrid, Thermo Scientific) equipped with a heated electrospray ionisation (H-ESI) source. […]
Urinary anserine was determined in a semi-quantitative manner using cold methanol:water:chloroform (5:3:5 (v/v)) extraction to separate the polar metabolites and apolar metabolites. […] The protein layer was quantified with a bicinchoninic acid (BCA) assay (ThermoFisher Scientific) and used for later normalization of the metabolite concentrations. […] The eluting metabolites, including anserine, were analyzed with an orbitrap mass spectrometer (Orbitrap Fusion Lumos Tribrid, Thermo Scientific) equipped with a heated electrospray ionization (H-ESI) source. […]
Urinary S-adenosylmethionine was determined in a semi-quantitative manner using cold methanol:water:chloroform (5:3:5 (v/v)) extraction to separate the polar metabolites and apolar metabolites. […] The protein layer was quantified with a bicinchoninic acid (BCA) assay (ThermoFisher Scientific) and used for later normalization of the metabolite concentrations. […]

Assay [5] concerns db/db mouse. The experiment in a line: Femur bone mass by weighing in db/db mice. To be noted: 50 mg/kg/day oral gavage, 10 week treatment, vs db/db+V group. The protocol: The bone femur mass was determined by weighing on a precision scale. Mice were purchased from The Jackson Laboratory (Stock No: 000642) in order to obtain sizeable cohorts to run groups in tandem, which is crucial for reliable testing of mitochondrial function. Eight to nine week-old male db/db mice (n=15 per group) received Urolithin A by oral gavage (50 mg/kg/day) for a duration of 10 weeks. Db/m (control) or db/db (diabetic) mice were randomized to the following treatments: A suspension of 0.5% carboxymethylcellulose (CMC; Sigma #419303) was first prepared. Urolithin A (16.67 mg/ml) was prepared by dissolving in 0.5% CMC solution and left stirring at room temperature. Urolithin A was dosed at 50 mg/kg/day. The weights of the mice were used to calculate the dosage of Urolithin A to be administered to each mouse, based on weekly bodyweight measurements. Approximately 1001 of 0.5% CMC was given to mice daily in the vehicle groups. All analyses were performed by ANOVA followed by post hoc paired analysis using Tukey's least significant difference method, correcting for multiple comparisons. A value for p<0.05 was considered as statistically significant. A Z-score of 2 was used to exclude outliers. Left and right femur bones were collected at the end of study, after 10 week treatment, and both femurs were cleaned and snap frozen, weighed and stored at −80° C.

With `O=c1oc2cc(O)ccc2c2ccc(O)cc12` [UA, 3,8-dihydroxyurolithin], the urinary creatinine entry in the assay on db/db mouse [1] (10 weeks, vs vehicle-treated group) is given as “higher”. Further, in the assay with db/db mouse [1] (after 5 weeks of treatment (midpoint)), the albumin/creatinine ratio entry was “significantly decreased”. Besides, in the assay with db/db mouse [1] (after 10 weeks of treatment (endpoint)), the albumin/creatinine ratio result is given as “significantly decreased”. Also, in the assay on db/db mouse [1] (at midpoint (5 weeks)), the “albuminuria (24-hour urine albumin excretion)” value is given as “did affect albuminuria”. For the same compound, the progression of albuminuria entry in the assay with db/db mouse [1] (baseline to 10 weeks, vs vehicle-treated counterparts) was “significantly delayed”. Further, the lean mass result with db/db mouse [2] was “significantly increased”. In the assay on db/db mouse [3], the “muscle mass of the quadriceps” value was “significantly increased” and the “muscle mass of the tibialis anterior” value was “significantly increased”. In addition, in the assay with db/db mouse [4], the “levels of urinary S-adenosylmethionine (SAM)” value is given as “significantly increased”, the “levels of urinary anserine” value was “significantly increased” and the “levels of urinary carnosine” value is on record as “significantly increased”. For the same compound, the femur bone mass result with db/db mouse [5] is recorded as “significantly increased”.
